Legend:
[1] = test system: human gastric cancer (NUGC); test: In vitro cytotoxicity against NUGC cells; type: cell-based; settings: gastric cancer, concentration producing 50% reduction in cell growth, read-out: Cytotoxicity (IC50 in nM) NUGC
Description: (§1) The heterocyclic compounds, prepared in this study, were evaluated according to standard protocols for their in vitro cytotoxicity against six human cancer cell lines including cells derived from human gastric cancer (NUGC), human colon cancer (DLD1), human liver cancer (HA22T and HEPG2), nasopharyngeal carcinoma (HONE1), human breast cancer (MCF) and normal fibroblast cells (WI38). For comparison purposes, CHS 828, a pyridyl cyanoguanidine, was used as a standard antitumor drug (Figure 2). […] All the synthesized compounds were tested for their cytotoxicity against normal fibroblast cells.
(§2) Fetal bovine serum (FBS) and L-glutamine, were purchased from Gibco Invitrogen Co. (Scotland, UK). RPMI-1640 medium was purchased from Cambrex (East Rutherford, NJ, USA). Dimethyl sulfoxide (DMSO), CHS 828, penicillin, streptomycin and sulforhodamine B (SRB) were purchased from Sigma Chemical Co. (Saint Louis, MO, USA).
(§3) Cell cultures were obtained from the European Collection of Cell Cultures (ECACC, Salisbury, UK) and human gastric cancer (NUGC), human colon cancer (DLD1), human liver cancer (HA22T and HEPG2), human breast cancer (MCF), nasopharyngeal carcinoma (HONE1) and normal fibroblast cells (WI38) were kindly provided by the National Cancer Institute (NCI, Cairo, Egypt). They were grown as a monolayer and routinely maintained in RPMI-1640 medium supplemented with 5% heat inactivated FBS, 2 mM glutamine and antibiotics (penicillin 100 U/mL, streptomycin 100 µg/mL) at 37 °C in a humidified atmosphere containing 5% CO2. Exponentially growing cells were obtained by plating 1.5 × 10^5 cells/mL for the six human cancer cell lines followed by 24 h of incubation. The effect of the vehicle solvent (DMSO) on the growth of these cell lines was evaluated in all the experiments by exposing untreated control cells to the maximum concentration (0.5%) of DMSO used in each assay.

[2] = test system: human colon cancer (DLD1); test: In vitro cytotoxicity against DLD1 cells; type: cell-based; settings: DLD-1, DLDI, colon cancer, concentration producing 50% reduction in cell growth, read-out: Cytotoxicity (IC50 in nM) DLDI
Description: as §1, §2, §3

[3] = test system: human liver cancer (HA22T); test: In vitro cytotoxicity against HA22T cells; type: cell-based; settings: liver cancer, concentration producing 50% reduction in cell growth, read-out: Cytotoxicity (IC50 in nM) HA22T
Description: as §1, §2, §3

[4] = test system: human liver cancer (HEPG2); test: In vitro cytotoxicity against HEPG2 cells; type: cell-based; settings: HEPG2, liver cancer, concentration producing 50% reduction in cell growth, read-out: Cytotoxicity (IC50 in nM) HEPG2
Description: as §1, §2, §3

[5] = test system: nasopharyngeal carcinoma (HONE1); test: In vitro cytotoxicity against HONE1 cells; type: cell-based; settings: Homo sapiens; HONE1, nasopharyngeal carcinoma; concentration producing 50% reduction in cell growth; read-out: Cytotoxicity (IC50 in nM) HONE1
Description: as §1, §2, §3

[6] = test system: human breast cancer (MCF); test: In vitro cytotoxicity against MCF cells; type: cell-based; settings: MCF, breast cancer, concentration producing 50% reduction in cell growth, read-out: Cytotoxicity (IC50 in nM) MCF
Description: as §1, §2, §3

[7] = In vitro cytotoxicity against normal fibroblast cells WI38; type: cell-based; settings: human, concentration producing 50% reduction in cell growth
Description: as §1, §2, §3

SMILES	melting point	IC50 [1]	IC50 [2]	IC50 [3]	IC50 [4]	IC50 [5]	IC50 [6]	IC50 [7]
Cc1ccc(-n2cc(-c3cc4ccccc4oc3=O)sc2=Nc2ccccc2)cc1 [Compound 5b, 3-(2-(Phenylimino)-3-(p-tolyl)-2,3-dihydrothiazol-5-yl)-2H-chromen-2-one]	99 to 101 °C	2210 nM	1070 nM	1290 nM	1300 nM	2180 nM	1230 nM	489 nM
N#CC(C#N)=C(CO)c1cc2ccccc2oc1=O [Compound 3, 2-(2-Hydroxy-1-(2-oxo-2H-chromen-3-yl)ethylidene)malononitrile]	162 to 164 °C	1160 nM	1280 nM	1650 nM	1230 nM	699 nM	821 nM	910 nM
COc1ccc(-n2cc(-c3cc4ccccc4oc3=O)sc2=Nc2ccccc2)cc1 [Compound 5c, 3-(3-(4-Methoxyphenyl)-2-(phenylimino)-2,3-dihydrothiazol-5-yl)-2H-chromen-2-one]	103 to 105 °C	1620 nM	396 nM	274 nM	2120 nM	670 nM	1180 nM	490 nM

Further lines, with some results ahead:

melting point	SMILES	IC50 [1]	IC50 [2]	IC50 [3]	IC50 [4]	IC50 [5]	IC50 [6]	IC50 [7]
171 to 173 °C	N#CC1=C(N)NC(c2cc3ccccc3oc2=O)=C(Br)C1c1ccccc1 (stereo not shown) [Compound 7a, 2-Amino-5-bromo-6-(2-oxo-2H-chromen-3-yl)-4-phenyl-1,4-dihydropyridine-3-carbonitrile]	38 nM	893 nM	166 nM	399 nM	423 nM	463 nM	379 nM
168 to 170 °C	N#CC1=C(N)NC(c2cc3ccccc3oc2=O)=C(C#N)C1c1ccco1 (stereo not shown) [Compound 11d, 2-Amino-4-(furan-2-yl)-6-(2-oxo-2H-chromen-3-yl)-1,4-dihydropyridine-3,5-dicarbonitrile]	649 nM	3460 nM	137 nM	3120 nM	1190 nM	40 nM	652 nM
193 to 195 °C	COc1ccc(C2C(Br)=C(c3cc4ccccc4oc3=O)OC(N)=C2C#N)cc1 (stereo not shown) [Compound 6b, 2-Amino-5-bromo-4-(4-methoxyphenyl)-6-(2-oxo-2H-chromen-3-yl)-4H-pyran-3-carbonitrile]	3320 nM	2670 nM	2260 nM	169 nM	2850 nM	2850 nM	280 nM
173 to 175 °C	N#CC1=C(N)OC(c2cc3ccccc3oc2=O)=C(C#N)C1c1ccccc1 (stereo not shown) [Compound 10a, 2-Amino-6-(2-oxo-2H-chromen-3-yl)-4-phenyl-4H-pyran-3,5-dicarbonitrile]	537 nM	440 nM	1160 nM	2770 nM	6270 nM	2530 nM	417 nM
133 to 135 °C	N#CC1=C(N)NC(c2cc3ccccc3oc2=O)=C(C#N)C1c1ccccc1 (stereo not shown) [Compound 11a, 2-Amino-6-(2-oxo-2H-chromen-3-yl)-4-phenyl-1,4-dihydropyridine-3,5-dicarbonitrile]	680 nM	222 nM	314 nM	3350 nM	2320 nM	4940 nM	128 nM
